The compounds below were run against T1, HDM2 (Homo sapiens, UniProt Q00987) (assay: FRET assay (HDM2 inhibition; method not described in this part)). Conditions: Table 4.
T1 construct: Thioredoxin (N); made in house; host or cells: E. coli strain BL21(DE3)Rosetta
T1 sequence (Q00987 17-125): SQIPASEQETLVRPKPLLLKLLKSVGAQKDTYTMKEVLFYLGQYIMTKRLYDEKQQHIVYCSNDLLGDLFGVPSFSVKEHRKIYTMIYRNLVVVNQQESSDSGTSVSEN
Format: binding
In the case of `COCCOc1ccc(C)cc1-c1nc2nc(C(=O)O)nc(N[C@H](C)C3CCC3)c2n1Cc1ccc(Cl)cc1` [Example 4.8, (R)-7-(4-chlorobenzyl)-6-((1-cyclobutylethyl)amino)-8-(2-(2-methoxyethoxy)-5-methylphenyl)-7H-purine-2-carboxylic acid], the IC50 is reported as 55 nM. `COCCOc1ccc(C)cc1-c1nc2nc(C(=O)O)nc(N[C@H](C)C3CC3)c2n1Cc1ccc(Cl)cc1` [Example 4.9, (R)-7-(4-chlorobenzyl)-6-((1-cyclopropylethyl)amino)-8-(2-(2-methoxyethoxy)-5-methylphenyl)-7H-purine-2-carboxylic acid] gave an IC50 of 27.3 nM. `Cc1ccc(OCCO)c(-c2nc3nc(C(=O)O)nc(N[C@H](C)C4CC4)c3n2Cc2ccc(Cl)cc2)c1` [Example 4.10, (R)-7-(4-chlorobenzyl)-6-((1-cyclopropylethyl)amino)-8-(2-(2-hydroxyethoxy)-5-methylphenyl)-7H-purine-2-carboxylic acid] showed an IC50 of 238 nM. With `Cc1ccc(OCCC(=O)O)c(-c2nc3nc(C(=O)O)nc(N[C@H](C)C4CC4)c3n2Cc2ccc(Cl)cc2)c1` [Example 4.11, (R)-8-(2-(2-carboxyethoxy)-5-methylphenyl)-7-(4-chlorobenzyl)-6-((1-cyclopropylethyl)amino)-7H-purine-2-carboxylic acid] the IC50 was 312 nM. In the case of `Cc1ccc(OCCC(=O)NCCO)c(-c2nc3nc(C(=O)O)nc(N[C@H](C)C4CC4)c3n2Cc2ccc(Cl)cc2)c1` [Example 4.12, (R)-7-(4-chlorobenzyl)-6-((1-cyclopropylethyl)amino)-8-(2-(3-((2-hydroxyethyl)amino)-3-oxopropoxy)-5-methylphenyl)-7H-purine-2-carboxylic acid], the IC50 is reported as 348 nM. With `CNC(=O)CCOc1ccc(C)cc1-c1nc2nc(C(=O)O)nc(N[C@H](C)C3CC3)c2n1Cc1ccc(Cl)cc1` [Example 4.13, (R)-7-(4-chlorobenzyl)-6-((1-cyclopropylethyl)amino)-8-(5-methyl-2-(3-(methylamino)-3-oxopropoxy)phenyl)-7H-purine-2-carboxylic acid] the IC50 was 487 nM. Compound `Cc1ccc(OCCCN2CCOCC2)c(-c2nc3nc(C(=O)O)nc(N[C@H](C)C4CC4)c3n2Cc2ccc(Cl)cc2)c1` [Example 4.14, (R)-7-(4-chlorobenzyl)-6-((1-cyclopropylethyl)amino)-8-(5-methyl-2-(3-morpholinopropoxy)phenyl)-7H-purine-2-carboxylic acid] has an IC50 of 212 nM. In the case of `COCCN(CCCOc1ccc(C)cc1-c1nc2nc(C(=O)O)nc(N[C@H](C)C3CC3)c2n1Cc1ccc(Cl)cc1)CCOC` [Example 4.15, (R)-8-(2-(3-(bis(2-methoxyethyl)amino)propoxy)-5-methylphenyl)-7-(4-chlorobenzyl)-6-((1-cyclopropylethyl)amino)-7H-purine-2-carboxylic acid], the IC50 is reported as 667 nM. Compound `Cc1ccc(OCCCO)c(-c2nc3nc(C(=O)O)nc(N[C@H](C)C4CC4)c3n2Cc2ccc(C#N)cc2)c1` [Example 4.16, (R)-7-(4-cyanobenzyl)-6-((1-cyclopropylethyl)amino)-8-(2-(3-hydroxypropoxy)-5-methylphenyl)-7H-purine-2-carboxylic acid] has an IC50 of 481 nM. `Cc1ccc(OCCCN2CCN(C)CC2)c(-c2nc3nc(C(=O)O)nc(N[C@H](C)C4CC4)c3n2Cc2ccc(Cl)cc2)c1` [Example 4.17, (R)-7-(4-chlorobenzyl)-6-(1-cyclopropylethylamino)-8-(5-methyl-2-(3-(4-methylpiperazin-1-yl)propoxy)phenyl)-7H-purine-2-carboxylic acid] gave an IC50 of 507 nM. `Cc1ccc(O)c(-c2nc3nc(C(=O)O)nc(N[C@H](C)C4CC4)c3n2Cc2ccc(Cl)cc2)c1` [Example 4.18, (R)-7-(4-chlorobenzyl)-6-((1-cyclopropylethyl)amino)-8-(2-hydroxy-5-methylphenyl)-7H-purine-2-carboxylic acid] gave an IC50 of 347 nM. With `Cc1ccc(OCC(O)CO)c(-c2nc3nc(C(=O)O)nc(N[C@H](C)C4CC4)c3n2Cc2ccc(Cl)cc2)c1` (stereo partly drawn) [Example 4.19, 7-(4-chlorobenzyl)-6-(((R)-1-cyclopropylethyl)amino)-8-(2-(2,3-dihydroxypropoxy)-5-methylphenyl)-7H-purine-2-carboxylic acid] the IC50 was 586 nM. `Cc1ccc(OCCCO)c(-c2nc3nc(C(=O)O)nc(N[C@H](C)C4CC4)c3n2Cc2ccc(Cl)cc2)c1` [Example 4.20, (R)-7-(4-chlorobenzyl)-6-((1-cyclopropylethyl)amino)-8-(2-(3-hydroxypropoxy)-5-methylphenyl)-7H-purine-2-carboxylic acid] showed an IC50 of 112 nM.

Same assay, conditions: Table 5
`Cc1cccc(-c2nc3nc(C(=O)O)nc(N[C@H](C)C4CC4)c3n2C(C)c2ccc(Cl)cc2)c1` (stereo partly drawn) [Example 5.1, 7-(1-(4-chlorophenyl)ethyl)-6-(((R)-1-cyclopropylethyl)amino)-8-(3-methylphenyl)-7H-purine-2-carboxylic acid] gave an IC50 of 855 nM. In the case of `Cc1cccc(-c2nc3nc(C(=O)O)nc(NCC4CC4)c3n2C(C)c2ccc(Cl)cc2)c1` (stereo not shown) [Example 5.2, 7-(1-(4-chlorophenyl)ethyl)-6-((cyclopropylmethyl)amino)-8-(m-tolyl)-7H-purine-2-carboxylic acid], the IC50 is reported as 984 nM. In the case of `Cc1cccc(-c2nc3nc(C(=O)O)nc(N[C@@H](C)C4CC4)c3n2C(C)c2ccc(Cl)cc2)c1` (stereo partly drawn) [Example 5.3, 7-(1-(4-chlorophenyl)ethyl)-6-((S)-1-cyclopropylethylamino)-8-(3-methylphenyl)-7H-purine-2-carboxylic acid], the IC50 is reported as 601 nM. With `Cc1cccc(-c2nc3nc(C(=O)O)nc(N[C@H](C)C4CC4)c3n2Cc2ccc(F)c(C(F)(F)F)c2)c1` [Example 5.4, 6-{[(1R)-1-cyclopropylethyl]amino}-7-[4-fluoro-3-(trifluoromethyl)benzyl]-8-(3-methylphenyl)-7H-purine-2-carboxylic acid] the IC50 was 4140 nM. With `CCOc1ccc(C(F)(F)F)cc1Cn1c(-c2cccc(C)c2)nc2nc(C(=O)O)nc(N[C@H](C)C3CC3)c21` [Example 5.5, 6-{[(1R)-1-cyclopropylethyl]amino}-7-(2-ethoxy-5-(trifluoromethyl)benzyl)-8-(3-methylphenyl)-7H-purine-2-carboxylic acid] the IC50 was 2740 nM. In the case of `CCOc1ccccc1Cn1c(-c2cccc(C)c2)nc2nc(C(=O)O)nc(N[C@H](C)C3CCC3)c21` [Example 5.6, 6-{[(1R)-1-cyclobutylethyl]amino}-7-(2-ethoxybenzyl)-8-(3-methylphenyl)-7H-purine-2-carboxylic acid], the IC50 is reported as 1840 nM. With `Cc1cccc(-c2nc3nc(C(=O)O)nc(N[C@H](C)C4CC4)c3n2Cc2ccc(C(C)C)cc2)c1` [Example 5.7, 6-{[(1R)-1-cyclopropylethyl]amino}-7-[4-(1-methylethyl)benzyl]-8-(3-methylphenyl)-7H-purine-2-carboxylic acid] the IC50 was 3550 nM. With `Cc1cccc(-c2nc3nc(C(=O)O)nc(N[C@H](C)C4CC4)c3n2Cc2ccc(OC(F)(F)F)cc2)c1` [Example 5.8, 6-{[(1R)-1-cyclopropylethyl]amino}-8-(3-methylphenyl)-7-[4-(trifluoromethoxy)benzyl]-7H-purine-2-carboxylic acid] the IC50 was 149 nM. `Cc1cccc(-c2nc3nc(C(=O)O)nc(N[C@H](C)C4CC4)c3n2Cc2ccc(C(F)(F)F)c(F)c2)c1` [Example 5.9, 6-{[(1R)-1-cyclopropylethyl]amino}-7-[3-fluoro-4-(trifluoromethyl)benzyl]-8-(3-methylphenyl)-7H-purine-2-carboxylic acid] gave an IC50 of 119 nM. `Cc1cccc(-c2nc3nc(C(=O)O)nc(N[C@H](C)C4CCC4)c3n2Cc2ccc(C3CC3)cc2)c1` [Example 5.10, 6-{[(1R)-1-cyclobutylethyl]amino}-7-(4-cyclopropylbenzyl)-8-(3-methylphenyl)-7H-purine-2-carboxylic acid] showed an IC50 of 270 nM. For `Cc1cccc(-c2nc3nc(C(=O)O)nc(N[C@H](C)C4CCC4)c3n2Cc2ccc(Cl)cc2Cl)c1` [Example 5.11, 6-{[(1R)-1-cyclobutylethyl]amino}-7-(2,4-dichlorobenzyl)-8-(3-methylphenyl)-7H-purine-2-carboxylic acid], the IC50 was 259 nM. In the case of `Cc1cccc(-c2nc3nc(C(=O)O)nc(N[C@H](C)C4CCC4)c3n2Cc2ccc(C(F)(F)F)cc2Cl)c1` [Example 5.12, 7-[2-chloro-4-(trifluoromethyl)benzyl]-6-{[(1R)-1-cyclobutylethyl]amino}-8-(3-methylphenyl)-7H-purine-2-carboxylic acid], the IC50 is reported as 94.6 nM. `Cc1cccc(-c2nc3nc(C(=O)O)nc(N[C@H](C)C4CCC4)c3n2Cc2ccc(OC(F)F)cc2)c1` [Example 5.13, 6-{[(1R)-1-cyclobutylethyl]amino}-7-[4-(difluoromethoxy)benzyl]-8-(3-methylphenyl)-7H-purine-2-carboxylic acid] gave an IC50 of 128 nM. With `Cc1cccc(-c2nc3nc(C(=O)O)nc(N[C@H](C)C4CCC4)c3n2Cc2ccc(OC(F)(F)F)c(F)c2)c1` [Example 5.14, 6-{[(1R)-1-cyclobutylethyl]amino}-7-[3-fluoro-4-(trifluoromethoxy)benzyl]-8-(3-methylphenyl)-7H-purine-2-carboxylic acid] the IC50 was 36.4 nM. With `Cc1cccc(-c2nc3nc(C(=O)O)nc(N[C@H](C)C4CC4)c3n2Cc2ccc(C(F)(F)F)c(Cl)c2)c1` [Example 5.15, 7-[3-chloro-4-(trifluoromethyl)benzyl]-6-{[(1R)-1-cyclopropylethyl]amino}-8-(3-methylphenyl)-7H-purine-2-carboxylic acid] the IC50 was 609 nM. `Cc1cccc(-c2nc3nc(C(=O)O)nc(N[C@H](C)C4CC4)c3n2Cc2ccccc2C(F)(F)F)c1` [Example 5.16, 6-{[(1R)-1-cyclopropylethyl]amino}-8-(3-methylphenyl)-7-[2-(trifluoromethyl)benzyl]-7H-purine-2-carboxylic acid] showed an IC50 of 8330 nM. With `Cc1cccc(-c2nc3nc(C(=O)O)nc(N[C@H](C)C4CCC4)c3n2Cc2ccc(C(F)(F)F)cc2F)c1` [Example 5.17, 6-{[(1R)-1-cyclobutylethyl]amino}-7-[2-fluoro-4-(trifluoromethyl)benzyl]-8-(3-methylphenyl)-7H-purine-2-carboxylic acid] the IC50 was 74.3 nM. For `CCOc1cc(C(F)(F)F)ccc1Cn1c(-c2cccc(C)c2)nc2nc(C(=O)O)nc(N[C@H](C)C3CCC3)c21` [Example 5.18, 6-{[(1R)-1-cyclobutylethyl]amino}-7-[2-ethoxy-4-(trifluoromethyl)benzyl]-8-(3-methylphenyl)-7H-purine-2-carboxylic acid], the IC50 was 207 nM.

Source: patent EP2951180B1, “2,6,7,8 SUBSTITUTED PURINES AS HDM2 INHIBITORS” (Merck Sharp & Dohme Corp., priority 2013, dated 2014)
